This series is described as follows: Benzyl alcohol as additive on nasal administration of cGMP PDE inhibitors. The series is classed as in vivo.

Results on one molecule are retold here after US6740306B2, “Imidazotriazinone-containing compositions for nasal administration” (Bayer Aktiengesellschaft, priority 2002, dated 2004).

Each structure is given as a SMILES string. Entries after “also recorded” stand apart in the source; their conditions may differ.

For `OCc1ccccc1` [benzyl alcohol], the “Ability to reduce or prevent the disadvantages occurring on nasal administration of cGMP PDE inhibitors” value is on record as “unable to reduce or prevent the disadvantages; also recorded: unsuitable for overcoming the disadvantages” and the “Local irritation of the nasal mucosa” value is given as “led to local irritation of the nasal mucosa”.
